Experimental findings from patent US12421211B2, “Heterocyclic compounds” (Hoffmann-La Roche Inc., priority 2021, dated 2025) are described below.

Where a name gives a salt, the structure may show the parent alone.

One assay has as its system Acinetobacter baumannii ATCC17961. Kind of assay: Antimicrobial susceptibility testing: 90% growth inhibitory concentration (IC90) determination. In kind it is cell-based. As to conditions: 90% growth inhibitory concentration, Acinetobacter baumannii ATCC17961, Iso-Sensitest broth, OD 600 nm over 16 h; read-out: ATCC 17961 IC90. The method, boiled down: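 Growth inhibition derived in log phase from OD600 kinetics (every 20 minutes, 16h, 35±2° C) of ATCC17961 in Iso-Sensitest medium, inoculum ~5×10^5 CFU/ml. Compounds tested as twofold series, 10 points (e.g. 50 to 0.097 μM final); IC90 and IC50 reported.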
What is called IC90 is the point of the concentration-response curve where the effect stands at 90%. For the compound `Cc1nn(CCOC(F)F)cc1-c1ccc(-c2cnc(C(=O)Nc3ccc(C(=O)N4CCN(C(=O)C5CC[N+](CC(=O)[O-])(CC6CNC6)CC5)CC4)c(Cl)c3)n2C)c(F)c1F` (stereo not drawn) [Example N4, cis 2-[1-(azetidin-3-ylmethyl)-4-[4-[2-chloro-4-[[5-[4-[1-[2-(difluoromethoxy)ethyl]-3-methyl-pyrazol-4-yl]-2,3-difluoro-phenyl]-1-methyl-imidazole-2-carbonyl]amino]benzoyl]piperazine-1-carbonyl]piperidin-1-ium-1-yl]acetate], the IC90 was found to be 108 nM.

Staying with this assay, now noted: Acinetobacter baumannii, ATCC17961, 16 h, 90% growth inhibitory concentration, Acinetobacter baumannii ATCC17961, Iso-Sensitest broth, OD 600 nm over 16 h; read-out: ATCC 17961 IC90.
Turning to `CNC(=O)Cn1cc(-c2ccc(-c3cnc(C(=O)Nc4ccc(C(=O)N5CCN(C(=O)[C@@H]6C[C@@H](O)C[N+]6(C)C)CC5)c(Cl)c4)n3C)c(F)c2F)c(C)n1` [Example F5, N-[3-chloro-4-[4-[(2S,4R)-4-hydroxy-1,1-dimethyl-pyrrolidin-1-ium-2-carbonyl]piperazine-1-carbonyl]phenyl]-5-[2,3-difluoro-4-[3-methyl-1-[2-(methylamino)-2-oxo-ethyl]pyrazol-4-yl]phenyl]-1-methyl-imidazole-2-carboxamide; formate], the 90% effect concentration (IC90) was determined as 280 nM.

On to `COCCn1ncc(-c2ccc(-c3cnc(C(=O)Nc4ccc(C(=O)N5CCN(C(=O)C[C@@H]6CC[N+](C)(C)C6)CC5)c(Cl)c4)n3C)c(F)c2F)c1C` [Example A5, N-[3-chloro-4-[4-[2-[(3S)-1,1-dimethylpyrrolidin-1-ium-3-yl]acetyl]piperazine-1-carbonyl]phenyl]-5-[2,3-difluoro-4-[1-(2-methoxyethyl)-5-methyl-pyrazol-4-yl]phenyl]-1-methyl-imidazole-2-carboxamide; formate], for which the concentration for an effect of 90% (IC90) worked out at 55 nM.

Consider `COCCCn1cc(-c2ccc(-c3cnc(C(=O)Nc4ccc(C(=O)N5CCN(C(=O)[C@@H]6COCC[N+]6(C)C)CC5)c(Cl)c4)n3C)c(F)c2F)c(C)n1` [Example D13, N-[3-chloro-4-[4-[(3S)-4,4-dimethylmorpholin-4-ium-3-carbonyl]piperazine-1-carbonyl]phenyl]-5-[2,3-difluoro-4-[1-(3-methoxypropyl)-3-methyl-pyrazol-4-yl]phenyl]-1-methyl-imidazole-2-carboxamide; formate], for which the concentration for an effect of 90% (IC90) amounted to 340 nM.

As for `COCCn1nc(C)c(-c2ccc(-c3cnc(C(=O)Nc4ccc(C(=O)N5CCN(C(=O)C6CC[N+](C)(C)CC6)CC5)c(Cl)c4)n3C)c(F)c2F)c1C` [Example A2, N-[3-chloro-4-[4-(1,1-dimethylpiperidin-1-ium-4-carbonyl)piperazine-1-carbonyl]phenyl]-5-[2,3-difluoro-4-[1-(2-methoxyethyl)-3,5-dimethyl-pyrazol-4-yl]phenyl]-1-methyl-imidazole-2-carboxamide; formate], the concentration for an effect of 90% (IC90) came out at 230 nM.

As for `Cc1nn(CC2CCOCC2)cc1-c1ccc(-c2cnc(C(=O)Nc3ccc(C(=O)N4CCN(C(=O)C5CC[N+](C)(C)CC5)CC4)c(Cl)c3)n2C)c(F)c1F` [Example F39, N-[3-chloro-4-[4-(1,1-dimethylpiperidin-1-ium-4-carbonyl)piperazine-1-carbonyl]phenyl]-5-[2,3-difluoro-4-[3-methyl-1-(tetrahydropyran-4-ylmethyl)pyrazol-4-yl]phenyl]-1-methyl-imidazole-2-carboxamide; formate], the IC90 came to 340 nM.

For the compound `Cn1cc(-c2n[nH]cc2-c2ccc(-c3cnc(C(=O)Nc4ccc(C(=O)N5CCN(C(=O)C6CC[N+](C)(C)CC6)CC5)c(Cl)c4)n3C)c(F)c2F)cn1` [Example F47, N-[3-chloro-4-[4-(1,1-dimethylpiperidin-1-ium-4-carbonyl)piperazine-1-carbonyl]phenyl]-5-[2,3-difluoro-4-[3-(1-methylpyrazol-4-yl)-1H-pyrazol-4-yl]phenyl]-1-methyl-imidazole-2-carboxamide; formate], the IC90 amounted to 530 nM.

With `Cc1nn(CCOC(F)F)c(C)c1-c1ccc(-c2cnc(C(=O)Nc3ccc(C(=O)N4CCN(C(=O)C5C[C@@H](O)C[N+]5(C)C)CC4)c(Cl)c3)n2C)c(F)c1F` (stereo partly drawn) [Example K2, N-[3-chloro-4-[4-[(4R)-4-hydroxy-1,1-dimethyl-pyrrolidin-1-ium-2-carbonyl]piperazine-1-carbonyl]phenyl]-5-[4-[1-2-(difluoromethoxy)ethyl]-3,5-dimethyl-pyrazol-4-yl]-2,3-difluoro-phenyl]-1-methyl-imidazole-2-carboxamide; formate], the IC90 came to 360 nM.

As for `COCCn1cc(-c2ccc(-c3cnc(C(=O)Nc4ccc(C(=O)N5CCN(C(=O)C6CCNCC6)CC5)c(Cl)c4)n3C)c(F)c2F)cn1` [Example E21, N-[3-chloro-4-[4-(piperidine-4-carbonyl)piperazine-1-carbonyl]phenyl]-5-[2,3-difluoro-4-[1-(2-methoxyethyl)pyrazol-4-yl]phenyl]-1-methyl-imidazole-2-carboxamide], the concentration for an effect of 90% (IC90) was 290 nM.

For `Cn1c(-c2ccc(-c3cn[nH]c3)cc2)cnc1C(=O)Nc1ccc(C(=O)N2CCN(C(=O)C3CCNCC3)CC2)c(Cl)c1` [Example E23, N-[3-chloro-4-[4-(piperidine-4-carbonyl)piperazine-1-carbonyl]phenyl]-1-methyl-5-[4-(1H-pyrazol-4-yl)phenyl] imidazole-2-carboxamide], the 90% effect concentration (IC90) came out at 140 nM.

As for `COCCn1ncc(-c2ccc(-c3cnc(C(=O)Nc4ccc(C(=O)N5CCN(C(=O)C6CC[N+](C)(C)CC6)CC5)c(Cl)c4)n3C)c(C)c2)c1C` [Example F19, N-[3-chloro-4-[4-(1,1-dimethylpiperidin-1-ium-4-carbonyl)piperazine-1-carbonyl]phenyl]-5-[4-[1-(2-methoxyethyl)-5-methyl-pyrazol-4-yl]-2-methyl-phenyl]-1-methyl-imidazole-2-carboxamide; formate], the IC90 was found to be 330 nM.

On to `Cc1nn(Cc2ccc(N)cn2)cc1-c1ccc(-c2cnc(C(=O)Nc3ccc(C(=O)N4CCN(C(=O)C5CC[N+](C)(C)CC5)CC4)c(Cl)c3)n2C)c(F)c1F` [Example F43, 5-[4-[1-[(5-amino-2-pyridyl)methyl]-3-methyl-pyrazol-4-yl]-2,3-difluoro-phenyl]-N-[3-chloro-4-[4-(1,1-dimethylpiperidin-1-ium-4-carbonyl)piperazine-1-carbonyl]phenyl]-1-methyl-imidazole-2-carboxamide; chloride], for which the concentration for an effect of 90% (IC90) came to 570 nM.

For `Cc1n[nH]cc1-c1ccc(-c2cnc(C(=O)Nc3ccc(C(=O)N4CCN(C(=O)C[N+]5(C)CCCC5)CC4)c(Cl)c3)n2C)c(F)c1F` [Example D15, N-[3-chloro-4-[4-[2-(1-methylpyrrolidin-1-ium-1-yl)acetyl]piperazine-1-carbonyl]phenyl]-5-[2,3-difluoro-4-(3-methyl-1H-pyrazol-4-yl)phenyl]-1-methyl-imidazole-2-carboxamide; formate], the concentration for an effect of 90% (IC90) amounted to 100 nM.

Consider `COCCn1ncc(-c2ccc(-c3cnc(C(=O)Nc4ccc(C(=O)N5CCN(C(=O)CCC[N+](CCN(C)C)(CCN(C)C)CC(=O)O)CC5)c(Cl)c4)n3C)c(F)c2F)c1C` [Example P4, carboxymethyl-[4-[4-[2-chloro-4-[[5-[2,3-difluoro-4-[1-(2-methoxyethyl)-5-methyl-pyrazol-4-yl]phenyl]-1-methyl-imidazole-2-carbonyl]amino]benzoyl]piperazin-1-yl]-4-oxo-butyl]-bis[2-(dimethylamino)ethyl]ammonium; 2,2,2-trifluoroacetate], for which the IC90 worked out at 657 nM.

Regarding `Cc1nn(CCNC(=O)Nc2ccccn2)cc1-c1ccc(-c2cnc(C(=O)Nc3ccc(C(=O)N4CCN(C(=O)C5CC[N+](C)(C)CC5)CC4)c(Cl)c3)n2C)c(F)c1F` [Example H7, N-[3-chloro-4-[4-(1,1-dimethylpiperidin-1-ium-4-carbonyl)piperazine-1-carbonyl]phenyl]-5-[2,3-difluoro-4-[3-methyl-1-[2-(2-pyridylcarbamoylamino)ethyl]pyrazol-4-yl]phenyl]-1-methyl-imidazole-2-carboxamide; formate], the IC90 turned out to be 190 nM.

The same assay, now with this note: Acinetobacter baumannii, ATCC17961, 16 h, read-out: ATCC 17961 IC90.
As to `Cc1nn(CC(=O)NC23CC(C#N)(C2)C3)cc1-c1ccc(-c2cnc(C(=O)Nc3ccc(C(=O)N4CCN(C(=O)C5CC[N+](C)(C)CC5)CC4)c(Cl)c3)n2C)c(F)c1F` [Example G4, N-[3-chloro-4-[4-(1,1-dimethylpiperidin-1-ium-4-carbonyl)piperazine-1-carbonyl]phenyl]-5-[4-[1-[2-[(3-cyano-1-bicyclo[1.1.1]pentanyl)amino]-2-oxo-ethyl]-3-methyl-pyrazol-4-yl]-2,3-difluoro-phenyl]-1-methyl-imidazole-2-carboxamide; formate], the concentration for an effect of 90% (IC90) is 190 nM.

Turning to `COCCn1cc(-c2ccc(-c3cnc(C(=O)Nc4ccc(C(=O)N5CCN(C(=O)[C@H]6CC[N@+](CC(=O)O)(CC7CNC7)CC6)CC5)c(C)c4)n3C)cc2F)c(C)n1` [Example O9, cis 2-[1-(azetidin-3-ylmethyl)-4-[4-[4-[[5-[3-fluoro-4-[1-(2-methoxyethyl)-3-methyl-pyrazol-4-yl]phenyl]-1-methyl-imidazole-2-carbonyl]amino]-2-methyl-benzoyl]piperazine-1-carbonyl]piperidin-1-ium-1-yl]acetic acid formate], the IC90 was 284 nM.

Consider `COCCn1cc(-c2ccc(-c3cnc(C(=O)Nc4ccc(C(=O)N5CCN(C(=O)C[N+]6(C)CC[C@@H](O)C6)CC5)c(Cl)c4)n3C)c(F)c2F)c(C)n1` (stereo partly drawn) [Example C8, N-[3-chloro-4-[4-[2-[(3R)-3-hydroxy-1-methyl-pyrrolidin-1-ium-1-yl]acetyl]piperazine-1-carbonyl]phenyl]-5-[2,3-difluoro-4-[1-(2-methoxyethyl)-3-methyl-pyrazol-4-yl]phenyl]-1-methyl-imidazole-2-carboxamide; formate], for which the IC90 came out at 210 nM.
